Test system: cancer cells
Assay: MTT cytotoxic assay of esterification products (Cytotoxicity activity)
Format: cell-based, human
In short: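 Cytotoxicity was read by MTT (Carmichael method, modified), with cells seeded 24 h ahead of treatment. Sixteen human cancer lines spanning bone, lung, bladder, ovary, colon, pancreas, prostate, skin, mouth, kidney, breast, liver, brain, leukemia and cervix were used. Test samples were acyl chloride esterification products of triterpenes, as mixtures or HPLC-purified compounds.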

[1] = E4A esterified with Cinnamoyl chloride (Cin = Cinnamoyl), compounds isolated with HPLC
[2] = E4A esterified with 2-propenoyl chloride (Ppe = Propenoyl), compounds isolated with HPLC
[3] = E4A esterified with Propionyl chloride (Ppi = Propionyl), compounds isolated with HPLC
[4] = E4A esterified with benzoyl chloride (Ben = benzoyl), compounds isolated with HPLC
[5] = esterification products of core compound E4A with (2E)-2-pentenoyl chloride (2pe = 2-pentenoyl)
[6] = esterification products of core compound E4A with Butyryl chloride (But = Butyryl)
[7] = esterification products of core compound E4A with Decanoyl chloride (Dec = Decanoyl)
[8] = esterification products of core compound E4A with Isobutyryl chloride (Iso = Isobutyryl)
[9] = esterification products of core compound E4A with Myristoyl chloride (Myr = Myristoyl)
[10] = esterification products of core compound E4A with Octanoyl chloride (Oct = Octanoyl)

## CC1(C)CC2C3=CCC4C5(C)CCC(O)C(C)(CO)C5CCC4(C)C3(C)CC(OC(=O)C=Cc3ccccc3)C2(COC(=O)C=Cc2ccccc2)C(O)C1O (centres unmarked) [Compound J28]
[1]
  Cytotoxicity activity: moderate

## CC1(C)CC2C3=CCC4C5(C)CCC(O)C(C)(COC(=O)C=Cc6ccccc6)C5CCC4(C)C3(C)CC(O)C2(CO)C(O)C1OC(=O)C=Cc1ccccc1 (centres unmarked) [Compound J29]
[1]
  Cytotoxicity activity: moderate

## CC1(C)CC2C3=CCC4C5(C)CCC(O)C(C)(COC(=O)C=Cc6ccccc6)C5CCC4(C)C3(C)CC(O)C2(CO)C(OC(=O)C=Cc2ccccc2)C1O (centres unmarked) [Compound J30]
[1]
  Cytotoxicity activity: moderate

## CC1(C)CC2C3=CCC4C5(C)CCC(OC(=O)C=Cc6ccccc6)C(C)(COC(=O)C=Cc6ccccc6)C5CCC4(C)C3(C)CC(O)C2(CO)C(O)C1O (centres unmarked) [Compound J31]
[1]
  Cytotoxicity activity: moderate

## CC1(C)CC2C3=CCC4C5(C)CCC(O)C(C)(COC(=O)C=Cc6ccccc6)C5CCC4(C)C3(C)CC(OC(=O)C=Cc3ccccc3)C2(CO)C(O)C1O (centres unmarked) [Compound J32]
[1]
  Cytotoxicity activity: moderate

## CC1(C)CC2C3=CCC4C5(C)CCC(O)C(C)(COC(=O)c6ccccc6)C5CCC4(C)C3(C)CC(OC(=O)c3ccccc3)C2(COC(=O)c2ccccc2)C(OC(=O)c2ccccc2)C1O (centres unmarked) [Compound K12]
[2]
  Cytotoxicity activity: weak
[3]
  Cytotoxicity activity: weak
[4]
  Cytotoxicity activity: weak
[5]
  Cytotoxicity activity: weak
[6]
  Cytotoxicity activity: weak
[7]
  Cytotoxicity activity: weak
[8]
  Cytotoxicity activity: weak
[9]
  Cytotoxicity activity: weak
[10]
  Cytotoxicity activity: weak

## CC1(C)CC2C3=CCC4C5(C)CCC(O)C(C)(COC(=O)c6ccccc6)C5CCC4(C)C3(C)CC(OC(=O)c3ccccc3)C2(COC(=O)c2ccccc2)C(O)C1OC(=O)c1ccccc1 (centres unmarked) [Compound K13]
[2]
  Cytotoxicity activity: weak
[3]
  Cytotoxicity activity: weak
[4]
  Cytotoxicity activity: weak
[5]
  Cytotoxicity activity: weak
[6]
  Cytotoxicity activity: weak
[7]
  Cytotoxicity activity: weak
[8]
  Cytotoxicity activity: weak
[9]
  Cytotoxicity activity: weak
[10]
  Cytotoxicity activity: weak

## CC1(C)CC2C3=CCC4C5(C)CCC(OC(=O)c6ccccc6)C(C)(COC(=O)c6ccccc6)C5CCC4(C)C3(C)CC(O)C2(COC(=O)c2ccccc2)C(OC(=O)c2ccccc2)C1O (centres unmarked) [Compound K14]
[2]
  Cytotoxicity activity: weak
[3]
  Cytotoxicity activity: weak
[4]
  Cytotoxicity activity: weak
[5]
  Cytotoxicity activity: weak
[6]
  Cytotoxicity activity: weak
[7]
  Cytotoxicity activity: weak
[8]
  Cytotoxicity activity: weak
[9]
  Cytotoxicity activity: weak
[10]
  Cytotoxicity activity: weak

## CC1(C)CC2C3=CCC4C5(C)CCC(OC(=O)c6ccccc6)C(C)(COC(=O)c6ccccc6)C5CCC4(C)C3(C)CC(O)C2(COC(=O)c2ccccc2)C(OC(=O)c2ccccc2)C1OC(=O)c1ccccc1 (centres unmarked) [Compound K15]
[2]
  Cytotoxicity activity: weak
[3]
  Cytotoxicity activity: weak
[4]
  Cytotoxicity activity: weak
[5]
  Cytotoxicity activity: weak
[6]
  Cytotoxicity activity: weak
[7]
  Cytotoxicity activity: weak
[8]
  Cytotoxicity activity: weak
[9]
  Cytotoxicity activity: weak
[10]
  Cytotoxicity activity: weak

## CC1(C)CC2C3=CCC4C5(C)CCC(O)C(C)(COC(=O)c6ccccc6)C5CCC4(C)C3(C)CC(OC(=O)c3ccccc3)C2(COC(=O)c2ccccc2)C(OC(=O)c2ccccc2)C1OC(=O)c1ccccc1 (centres unmarked) [Compound K16]
[2]
  Cytotoxicity activity: weak
[3]
  Cytotoxicity activity: weak
[4]
  Cytotoxicity activity: weak
[5]
  Cytotoxicity activity: weak
[6]
  Cytotoxicity activity: weak
[7]
  Cytotoxicity activity: weak
[8]
  Cytotoxicity activity: weak
[9]
  Cytotoxicity activity: weak
[10]
  Cytotoxicity activity: weak
